# ChEMBL document CHEMBL1149509, “Search of antitubercular activities in tetrahydroacridines: synthesis and biological evaluation” (Bioorg Med Chem Lett, 2006)
# What was measured:
# [1] = tested on: Mycobacterium tuberculosis; assay: Antitubercular activity against Mycobacterium tuberculosis H37Ra; format: functional
# [2] = tested on: Mycobacterium tuberculosis; assay: Antitubercular activity against Mycobacterium tuberculosis H37Rv; format: functional
# [3] = Partition coefficient, log P of the compound; format: physicochemical; conditions: octanol/water
smiles,measurement,setting,value
Clc1ccc(Oc2c3c(nc4ccccc24)CCCC3)cc1,MIC,[1],> 25 µg/mL
same,MIC,[2],> 12.5 µg/mL
same,logP,[3]; read-out: LogP,5.81
C=CCc1ccc(Oc2c3c(nc4ccccc24)CCCC3)c(OC)c1,MIC,[1],25 µg/mL
same,MIC,[2],> 12.5 µg/mL
same,logP,[3]; read-out: LogP,6.18
CC[C@@H](CO)NCCN[C@@H](CC)CO [ETHAMBUTOL],MIC,[2],3.25 µg/mL
Clc1cccc(CCNc2c3c(nc4ccccc24)CCCC3)c1,MIC,[1],25 µg/mL
same,MIC,[2],> 12.5 µg/mL
same,logP,[3]; read-out: LogP,5.78
CO[C@H]1/C=C/O[C@@]2(C)Oc3c(C)c(O)c4c(O)c(c(/C=N/N5CCN(C)CC5)c(O)c4c3C2=O)NC(=O)/C(C)=C\C=C\[C@H](C)[C@H](O)[C@@H](C)[C@@H](O)[C@@H](C)[C@H](OC(C)=O)[C@@H]1C [RIFAMPIN],MIC,[2],0.75 µg/mL
Clc1ccc(Oc2c3c(nc4ccccc24)CCCC3)c(Cl)c1,MIC,[1],> 25 µg/mL
same,MIC,[2],> 12.5 µg/mL
same,logP,[3]; read-out: LogP,6.37
CCCCCCNc1c2c(nc3ccccc13)CCCC2,MIC,[1],6.25 µg/mL
same,MIC,[2],6.25 µg/mL
same,logP,[3]; read-out: LogP,5.29
CCCCCCCCCCCCNc1c2c(nc3ccccc13)CCCC2,MIC,[1],6.25 µg/mL
same,MIC,[2],0.78 µg/mL
same,logP,[3]; read-out: LogP,7.79
Cc1ccc(Oc2c3c(nc4ccccc24)CCCC3)cc1C,MIC,[1],> 25 µg/mL
same,MIC,[2],> 12.5 µg/mL
same,logP,[3]; read-out: LogP,6.23
c1ccc2c(NCCCCCCCNc3c4c(nc5ccccc35)CCCC4)c3c(nc2c1)CCCC3,MIC,[1],6.25 µg/mL
same,MIC,[2],12.5 µg/mL
same,logP,[3]; read-out: LogP,7.99
Fc1ccc(Oc2c3c(nc4ccccc24)CCCC3)cc1,MIC,[1],> 25 µg/mL
same,MIC,[2],> 12.5 µg/mL
same,logP,[3]; read-out: LogP,5.41
c1ccc(CNc2c3c(nc4ccccc24)CCCC3)cc1,MIC,[1],25 µg/mL
same,MIC,[2],> 12.5 µg/mL
same,logP,[3]; read-out: LogP,4.94
COc1ccc(Nc2c3c(nc4ccccc24)CCCC3)cc1,MIC,[1],> 25 µg/mL
same,MIC,[2],> 12.5 µg/mL
same,logP,[3]; read-out: LogP,5.05
CCCCCCCCNc1c2c(nc3ccccc13)CCCC2,MIC,[1],1.56 µg/mL
same,MIC,[2],3.12 µg/mL
same,logP,[3]; read-out: LogP,6.12
c1ccc2c(NCCCCCCCCCCNc3c4c(nc5ccccc35)CCCC4)c3c(nc2c1)CCCC3,MIC,[1],3.12 µg/mL
same,MIC,[2],12.5 µg/mL
same,logP,[3],9.24
OCCNc1c2c(nc3ccccc13)CCCC2,MIC,[1],> 25 µg/mL
same,MIC,[2],12.5 µg/mL
same,logP,[3]; read-out: LogP,2.69
c1ccc2c(NCCCCCNc3c4c(nc5ccccc35)CCCC4)c3c(nc2c1)CCCC3,MIC,[1],25 µg/mL
same,MIC,[2],12.5 µg/mL
same,logP,[3]; read-out: LogP,7.15
c1ccc2c(N3CCOCC3)c3c(cc2c1)CCCC3,MIC,[1],> 25 µg/mL
same,MIC,[2],12.5 µg/mL
same,logP,[3]; read-out: LogP,3.6
c1ccc(Sc2c3c(nc4ccccc24)CCCC3)cc1,MIC,[1],> 25 µg/mL
same,MIC,[2],> 12.5 µg/mL
same,logP,[3]; read-out: LogP,5.82
NNC(=O)c1ccncc1 [ISONIAZID],MIC,[2],0.65 µg/mL
